Literature values in patent publication US20220313663A1, “ELTROMBOPAG DOSING REGIMEN” (NOVARTIS PHARMACEUTICALS CORPORATION, priority 2019, published 2022).

Details: subjects with Asian ancestry compared to the non-Asian population

- eltrombopag clearance (CL/F): lower
Structure (SMILES): CC1=NN(c2ccc(C)c(C)c2)C(=O)/C1=N\Nc1cccc(-c2cccc(C(=O)O)c2)c1O [eltrombopag]
